Experimental findings from patent US20240024262A1, “USE OF VALERIC ACID IN PREPARATION OF DRUG FOR PREVENTING AND TREATING DIABETES” (Harbin Medical University, priority 2022, published 2024) are described below.

SMILES strings stand for the structures.

The subject of assay [1] is Leptin receptor gene deficient db/db mice. Nature of the assay: Type 2 diabetes model db/db mice: food intake, body weight, blood glucose-related indexes. It counts as in vivo. The method, then:
The following drugs are taken as comparative examples: • 1. Comparative example where an existing drug serves as a positive control • (1) High-fat fed C57BL6/J mice • Sodium butyrate gavage intervention group: 75.0 mg/kg • (2) Type 2 diabetes model db/db mice • Sodium butyrate gavage intervention group: 75.0 mg/kg • Harmine gavage intervention group: 10.0 mg/kg • Metformin gavage intervention group: 100.0 mg/kg • (3) Cell line of mouse insulinoma islet β cells (Beta-TC-6) • Sodium butyrate intervention group: 1.0 mmol/L • Harmine intervention group: 10.0 μmmol/L • (4) Mouse islet β primary cell • Sodium butyrate intervention group: 1.0 mmol/L • Harmine intervention group: 10.0 μmmol/L • 2. A control test is taken as a comparative example • (1) High-fat fed C57BL6/J mice • Ordinary feed feeding group, and high-fat feed PBS gavage group • (2) Type 2 diabetes model db/db mice • Control feeding group and PBS gavage group • (3) Cell line of mouse insulinoma islet β cells (Beta-TC-6) • Blank control group, and palmitic acid (PA) intervention negative control group • (4) Mouse islet β primary cell • Blank control group, and PA intervention negative control group • Results are as follows:
(II) In the animal test, the therapeutic effect of the valeric acid on diabetes is observed by using Leptin receptor gene deficient db/db mice (purchased from Nanjing Junke Biotechnology Co., Ltd.) as test subjects.

The test system of assay [2] is High-fat fed C57BL6/J mice. Nature of the assay: High-fat fed C57BL/6J mice, valeric acid gavage: body weight, food intake, blood glucose homeostasis (OGTT). It counts as in vivo. An excerpt: In an animal experiment of high-fat model mice at a first stage, 6-8-week-old male C57BL/6J mice without specific pathogens (SPF grade) are firstly purchased from Liaoning Changsheng Biotechnology Co., Ltd., Experimental animal feeds are ordered from Beijing keaoxieli Feed Co., Ltd., including a mouse AIN-93M maintenance feed and a high-fat feed with a fat energy supply ratio of 45%; the nutrient compositions of the two feeds are in accordance with a rodent experimental animal feed formula recommended by U.S. Department of agriculture; and the AIN-93M maintenance feed is stored at a room temperature, and the high-fat feed with the energy supply ratio of 45% is stored at the low temperature of −20° C.
The animal experimental research was implemented in accordance with the rules and regulations required by Experimental Animal Management Committee of Harbin Medical University, and animals were raised in a laboratory of Clean Experimental Animal Center of School of Public Health of Harbin Medical University. The laboratory conditions are as follows: a temperature is 21.0 (±1.5) degrees Celsius, a relative humidity is 50 (±5)%, lighting is alternately performed for 12:12 hours by using a fluorescent lamp, the feed is freely taken, and distilled water is freely drunk. After being received, 6-8-week-old C57BL6/J mice as a kind of SPF experimental animals were fed in a single cage, and were arranged to freely drink the distilled water and uptake an animal feed for a week of adaptive feeding. Subsequently, the mice were weighed and randomly divided into 4 experimental groups according to the weights of the mice; and the 4 experimental groups were fed with the AIN-93M maintenance feed and the 45% high-fat feed respectively, and were treated with phosphate buffer salt solution (PBS) and different metabolite solutions by oral gavage. […]
During the feeding period of experimental animals, a scattered food amount and a leftover food amount of mice were weighed with an electronic scale and recorded and fresh feeds were changed every day, and a daily food intake was calculated. […] The weights of the mice were weighed and recorded once a week, and a clean animal bedding subjected to high-pressure disinfection was replaced. […] According to conversion of oral and intravenous doses in Pharmacological Experimental Methodology edited by Shuyun Xu and an equivalent dose ratio of rats and mice, a dose of the valeric acid is finally determined as 75 mg/kg which is approximately equal to ⅛ of a half lethal dose of the valeric acid, meeting a safety range in toxicology. […]

[3] abbreviates: 8 weeks of intervention, HF-V vs HF-PBS control group.

Regarding `CCCCC(=O)O` [valeric acid], in assay [1] (compared with metformin and Harmine groups), the “area under the OGTT curve” value was “smallest”. For the same molecule, in assay [1] (compared with the PBS control group), the “decrease of fasting blood glucose” value is roughly 10 mmol/L. The insulin secretion entry in assay [1] (comparison among groups / vs PBS control group) is recorded as “best”. Also, in assay [1] (vs PBS control group), the weights result was “decreased significantly”. In assay [2] (setting [3]), the “areas under OGTT-2h blood glucose curves” value was “significantly lower”, the fasting blood glucose result was “significantly lower” and the fasting insulin contents result is “significantly lower”. The weights of mice result in assay [2] (valeric acid 75 mg/kg/d gavage (as sodium valerate), vs HF-PBS group, after the sixth week) is “significantly lower”.
